In patent publication US7691420B2, “Compositions for the treatment and prevention of diabetes mellitus” (priority 2003, dated 2010):
“Also recorded” adds a separate entry of the source. Marks after values point to notes of the source that are not given here.

Columns and labels:
[1] = test system: C3H10T1/2; experiment: Adipocyte differentiation of C3H10T1/2 cells, oil red O staining; assay type: cell-based; details: for Optical Density: extracted oil red O stain after 11-day treatment, insulin 100 nM
Description: After the 11-day treatment, the cells were stained with oil red O. This was followed by extraction of the stain for concentration determination.

[2] = test system: C57BLKS/J db/db mice; experiment: Oral glucose tolerance test and fasted state glucose in db/db mice after 4 weeks; assay type: in vivo; details: for Fasted state glucose: blood, overnight fasting, before glucose load
Experimental: (§1) This model of late type 2 diabetes with severe hyperglycemia and obesity is widely used to determine the efficacy of anti-diabetic and anti-obesity compounds.
(§2) Male db/db mice were obtained from Jackson Laboratory (Bar Harbor, Me., USA). Adult mice aged 8 weeks were used in the experiment. Mice were housed individually in plastic cages with bedding and allowed free access to standard rodent food and tap water. The animal rooms were controlled for temperature (24° C.), humidity (55%), and light (12-h light-dark cycle). The animals were randomized into four groups. […] Body weight and food intake were determined over the course of the study. Total adipose tissue weight was determined by NMR. After four weeks of treatment an oral glucose tolerance test was carried out after an overnight fasting period. The blood glucose levels were measured before (fasted state glucose levels) application of an oral glucose load (1 g/kg body weight) and after 15, 30, 45, 60, 90, 120, 150 and 180 minutes. Area under the curve (AUC) was calculated from the resulting blood glucose curves and served as an indicator of glucose tolerance. At the end of the study, fed state levels of glucose, triglycerides and free fatty acids were determined in plasma. All data are expressed as means for animals in each group.

[3] = test system: C57BLKS/J db/db mice; experiment: Fed state plasma glucose, triglycerides and free fatty acids in db/db mice at end of study; assay type: in vivo; details: 4 weeks
Experimental: as §1, §2

[4] = test system: C57BLKS/J db/db mice; experiment: Body weight, adipose tissue weight and food intake in the 4-week db/db mouse study; assay type: in vivo; details: for Total adipose tissue weight / Body weight: 4 weeks feed-ad-mix, 1% EGCG and/or 0.038% rosiglitazone in diet, group means; for Total adipose tissue weight: by NMR; for Body weight: * vs control, # vs rosiglitazone (P<0.05)
Experimental: as §1, §2

[5] = 1% EGCG and/or 0.038% rosiglitazone in diet
[6] = fed state plasma, 1% EGCG and/or 0.038% rosiglitazone in diet

| Compound | Optical Density ([1]; Table 1, rosiglitazone 1 × 10^−5 M, pioglitazone 2.5 × 10^−5 M, EGCG 5 × 10^−5 M) | Optical Density ([1]; Table 2, ligustilide 50 × 10^−5 M, no EGCG) | Fasted state glucose [2, 5] | Free fatty acids [3, 6] | Glucose [3, 6] | Triglycerides [3, 6] | Total adipose tissue weight [4] | Body weight [4] | Adipocyte differentiation (result in words) ([1]; C3H10T1/2 cells, 11-day treatment, oil Red O staining) | AUC ([2]; 1% EGCG and/or 0.038% rosiglitazone in diet, oral glucose load 1 g/kg, blood glucose curve 0-180 minutes) | Glucose tolerance (result in words) ([2]; AUC of oral glucose tolerance test) | Fasted state glucose levels (result in words) ([2]; compared to control mice) | Fed state plasma levels of glucose, triglycerides, and free fatty acids (result in words) [3] | Body weight and adipose tissue weight (result in words) ([4]; 4 weeks, compared to control mice) |
| --- | --- | --- | --- | --- | --- | --- | --- | --- | --- | --- | --- | --- | --- | --- |
| Insulin: insulin, 100 nM, used alone as comparison in the adipocyte differentiation test [reference compound] | 0.21 ± 0.02 | 0.14 ± 0.01 |  |  |  |  |  |  |  |  |  |  |  |  |
| CN(CCOc1ccc(CC2SC(=O)NC2=O)cc1)c1ccccn1 (stereo not shown) [Rosiglitazone, rosiglitazone, reference compound] |  |  | 98.0* mg/dl | 25.2* mmol/l | 22.1* mmol/l | 1.01* mmol/l | 29.0* g | 50.0* g |  |  |  |  |  |  |
| (−)-epigallocatechin gallate [EGCG] |  |  | 132.1* mg/dl |  | 33.5*# mmol/l | 1.47* mmol/l | 20.9*# g | 38.8*# g | blocked TZD-induced adipocyte differentiation; also recorded: blocked ligustilide-induced adipocyte differentiation | 38353.5* | significantly improved | significantly reduced | significantly reduced | moderately decreased |
